What was measured:
[1] = tested on: Butyrylcholinesterase (Rattus norvegicus); assay: Inhibition of rat serum BuChE at 10 uM by Ellman's method relative to control
Acetylcholinesterase = Acetylcholinesterase (Electrophorus electricus, UniProt O42275); assay: Inhibition of electric eel AChE by Ellman's method
[2] = Antioxidant activity of compound assessed as trolox equivalent of ORAC radical scavenging activity by ORAC-FL assay; type: functional
[3] = target: Amyloid-beta precursor protein (Homo sapiens) (UniProt P05067); assay: Inhibition of self-induced amyloid beta (1 to 42) (unknown origin) aggregation by Thioflavin T based fluorometric assay relative to control; set-up: concentration or dose not given beside the values; conditions: concentration not given here
[4] = target: Acetylcholinesterase (Electrophorus electricus) (UniProt O42275); assay: Inhibition of electric eel AChE at 10 uM by Ellman's method relative to control
[5] = target: Amyloid-beta precursor protein (Homo sapiens) (UniProt P05067); assay: Inhibition of self-induced amyloid beta (1 to 42) (unknown origin) disaggregation by Thioflavin T based fluorometric assay relative to control; set-up: concentration or dose not given beside the values; conditions: concentration not given here

Chain of Acetylcholinesterase (Electrophorus electricus) (O42275 24-633 limits assumed): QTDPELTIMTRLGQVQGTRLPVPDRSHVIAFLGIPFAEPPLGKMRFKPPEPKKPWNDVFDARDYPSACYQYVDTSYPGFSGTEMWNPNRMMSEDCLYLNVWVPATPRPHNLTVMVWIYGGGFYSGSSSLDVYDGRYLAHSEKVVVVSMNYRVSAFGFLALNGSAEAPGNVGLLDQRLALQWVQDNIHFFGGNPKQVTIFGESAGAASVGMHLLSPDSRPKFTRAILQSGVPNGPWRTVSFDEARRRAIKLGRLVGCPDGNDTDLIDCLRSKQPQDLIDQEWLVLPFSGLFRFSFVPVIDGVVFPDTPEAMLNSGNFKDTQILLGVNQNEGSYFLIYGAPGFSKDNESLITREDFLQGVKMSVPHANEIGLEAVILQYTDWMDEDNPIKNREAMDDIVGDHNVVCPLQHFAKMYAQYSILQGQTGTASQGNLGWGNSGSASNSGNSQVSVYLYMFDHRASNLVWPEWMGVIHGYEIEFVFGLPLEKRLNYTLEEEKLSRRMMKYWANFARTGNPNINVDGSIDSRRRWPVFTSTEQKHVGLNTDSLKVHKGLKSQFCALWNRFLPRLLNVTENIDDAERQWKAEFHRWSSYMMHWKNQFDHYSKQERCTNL
Chain of Amyloid-beta precursor protein (Homo sapiens) (P05067 whole entry): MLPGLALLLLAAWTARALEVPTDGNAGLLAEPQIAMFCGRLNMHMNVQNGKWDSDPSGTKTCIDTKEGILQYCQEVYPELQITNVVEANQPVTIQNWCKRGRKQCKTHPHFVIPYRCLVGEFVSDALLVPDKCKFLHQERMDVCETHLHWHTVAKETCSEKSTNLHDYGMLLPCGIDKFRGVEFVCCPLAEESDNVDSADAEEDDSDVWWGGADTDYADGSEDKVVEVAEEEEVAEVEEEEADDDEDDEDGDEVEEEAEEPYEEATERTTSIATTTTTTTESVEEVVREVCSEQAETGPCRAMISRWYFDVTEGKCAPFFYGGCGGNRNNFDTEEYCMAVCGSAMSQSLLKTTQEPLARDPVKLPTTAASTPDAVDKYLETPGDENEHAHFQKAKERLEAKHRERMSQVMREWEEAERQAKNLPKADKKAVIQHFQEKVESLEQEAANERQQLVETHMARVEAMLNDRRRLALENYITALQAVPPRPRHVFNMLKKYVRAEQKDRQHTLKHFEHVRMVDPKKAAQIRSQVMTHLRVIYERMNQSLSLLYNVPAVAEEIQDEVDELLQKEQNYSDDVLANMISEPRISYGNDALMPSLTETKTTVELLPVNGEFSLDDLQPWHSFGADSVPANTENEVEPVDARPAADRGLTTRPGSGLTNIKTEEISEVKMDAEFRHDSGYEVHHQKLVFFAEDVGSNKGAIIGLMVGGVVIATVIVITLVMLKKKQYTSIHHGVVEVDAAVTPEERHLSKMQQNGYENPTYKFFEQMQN
Chain of Acetylcholinesterase (O42275 whole entry): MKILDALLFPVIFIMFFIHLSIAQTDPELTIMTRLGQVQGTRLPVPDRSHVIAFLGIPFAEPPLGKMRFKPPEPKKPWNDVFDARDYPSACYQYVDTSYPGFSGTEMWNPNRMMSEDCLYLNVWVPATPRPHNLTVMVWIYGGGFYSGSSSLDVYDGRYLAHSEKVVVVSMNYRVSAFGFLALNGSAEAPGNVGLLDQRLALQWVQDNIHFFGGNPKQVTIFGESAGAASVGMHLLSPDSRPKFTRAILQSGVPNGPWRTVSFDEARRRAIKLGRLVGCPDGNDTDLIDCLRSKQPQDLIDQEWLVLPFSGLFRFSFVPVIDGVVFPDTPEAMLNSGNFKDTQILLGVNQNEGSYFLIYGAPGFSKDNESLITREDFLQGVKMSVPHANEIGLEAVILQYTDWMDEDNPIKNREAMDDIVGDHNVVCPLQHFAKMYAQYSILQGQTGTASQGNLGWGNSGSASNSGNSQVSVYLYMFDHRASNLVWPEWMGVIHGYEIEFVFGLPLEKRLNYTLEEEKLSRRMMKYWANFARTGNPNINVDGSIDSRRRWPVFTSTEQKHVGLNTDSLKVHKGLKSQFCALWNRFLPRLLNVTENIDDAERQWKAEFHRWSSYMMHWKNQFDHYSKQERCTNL

SMILES | inhibition [1] [%] | IC50 (Acetylcholinesterase; read-out: IC50) [nM] | Activity [2] | inhibition [3] [%] | inhibition [4] [%] | IC50 (Acetylcholinesterase; read-out: pIC50 (converted)) [nM] | inhibition [5] [%]
O=c1ccc(-c2ccccc2O)nn1CCCCCCN1CCCCC1 | 25.6 | 4560 | 3.34 | – | – | – | –
CCN(CCCCCCCCn1nc(-c2cc(NC(C)=O)ccc2O)ccc1=O)Cc1ccccc1N(C)C | 36.4 | 2720 | 3.56 | 95.2 | – | – | –
CCN(CCCCCCn1nc(-c2cc(OC)ccc2O)ccc1=O)Cc1cccc(F)c1 | 17.4 | 2300 | 1.95 | – | – | – | –
O=c1ccc(-c2ccccc2O)nn1CCCCCCN1CCOCC1 | < 5 | – | 3.13 | – | 16.1 | – | –
CCN(CCCCCCn1nc(-c2ccccc2O)ccc1=O)Cc1ccc(N(C)C)cc1 | < 5 | 9210 | 3.63 | 51.9 | – | – | –
CCN(CCCCCCn1nc(-c2cc([N+](=O)[O-])ccc2O)ccc1=O)Cc1ccccc1OC | 31.8 | 1160 | 0.27 | – | – | – | –
CCN(CCCCCCn1nc(-c2cc(Cl)ccc2O)ccc1=O)Cc1cccc(F)c1 | 15.8 | 1430 | 0.84 | – | – | – | –
COc1ccccc1CN(C)CCCCCCn1nc(-c2ccccc2O)ccc1=O | 22.6 | 1070 | 2.89 | 30.9 | – | 85.1 | –
CCN(CCCCCCCCn1nc(-c2cc(N(C)C)ccc2O)ccc1=O)Cc1ccccc1N(C)C | 32.1 | 16500 | 3.31 | 97.4 | – | – | 86.9
CCN(CCCCCCn1nc(-c2ccc(N(C)C)cc2O)ccc1=O)Cc1ccccc1N(C)C | 17.6 | 2160 | 2.49 | 71.3 | – | – | 67.8
CCN(CCCCCCn1nc(-c2cc(Cl)ccc2O)ccc1=O)Cc1ccccc1N(C)C | 27.3 | 740 | 1.09 | – | – | – | –
CCN(CCCCCCOc1ccc(-c2ccccc2O)nn1)Cc1ccc(F)cc1 | < 5 | 49000 | 0.61 | – | – | – | –
CCN(CCCCCCn1nc(-c2cc(C)ccc2O)ccc1=O)Cc1ccccc1OC | 38.9 | 1650 | 1.38 | – | – | – | –
CCN(CCCCCCn1nc(-c2ccccc2O)ccc1=O)Cc1ccccc1F | 15.7 | 1030 | 2.43 | 27.4 | – | – | –
CN(CCCCCCn1nc(-c2ccccc2O)ccc1=O)Cc1ccccc1 | 28.6 | 930 | 2.78 | – | – | – | –
CCN(CCCCCCn1nc(-c2cc(OC)ccc2O)ccc1=O)Cc1ccccc1OC | 27.3 | 630 | 1.96 | – | – | – | –
CCN(CCCCCCOc1ccc(-c2cc(N(C)C)ccc2O)nn1)Cc1ccccc1N(C)C | 16.6 | 2180 | 2.28 | 95.2 | – | – | 85.4
CCN(CCCCCCn1nc(-c2cc(N(C)C)ccc2O)ccc1=O)Cc1ccccc1OC | 16.7 | 1210 | 2.17 | 93.9 | – | – | 79.2
CCN(CCCCCCn1nc(-c2cc(F)ccc2O)ccc1=O)Cc1ccccc1OC | 31.8 | 570 | 0.84 | 30.2 | – | – | 25.2
CCN(CCCCCCOc1ccc(-c2cc(N(C)C)ccc2O)nn1)Cc1cccc(F)c1 | 19.3 | 2270 | 1.29 | 96.3 | – | – | 85.1

SMILES | inhibition [1] [%] | IC50 (Acetylcholinesterase; read-out: IC50) [nM] | Activity [2] | inhibition [3] [%] | inhibition [4] [%] | IC50 (Acetylcholinesterase; read-out: pIC50 (converted)) [nM] | inhibition [5] [%]
CCN(CCCCCCn1nc(-c2cc(C)ccc2O)ccc1=O)Cc1ccccc1N(C)C | 23.9 | 280 | 1.26 | – | – | – | –
CCN(CCCn1nc(-c2ccccc2O)ccc1=O)Cc1ccccc1N(C)C | < 5 | – | 2.3 | 34.7 | 32.4 | – | –
CCN(CCCCCCn1nc(-c2cc(C)ccc2O)ccc1=O)Cc1cccc(F)c1 | 29.2 | 890 | 1.14 | – | – | – | –
CCN(CCCCCCn1nc(-c2ccccc2O)ccc1=O)Cc1ccc(F)cc1 | 9.3 | 8580 | 2.26 | – | – | – | –
CCN(CCCCCCn1nc(-c2ccccc2O)ccc1=O)Cc1ccccc1Cl | 19.6 | 2310 | 1.72 | – | – | – | –
CCN(CCCCCCn1nc(-c2cc(NC(C)=O)ccc2O)ccc1=O)Cc1cccc(F)c1 | 17.7 | 69 | 2.1 | 38.8 | – | – | –
CCN(CCCCCCn1nc(-c2cc(F)ccc2O)ccc1=O)Cc1ccccc1N(C)C | 28.8 | 160 | 0.82 | 30.3 | – | – | 26.1
CCN(CCCCCCn1nc(-c2cc(NC(C)=O)ccc2O)ccc1=O)Cc1ccccc1N(C)C | 14.4 | 86 | 2.61 | 44 | – | – | 38.4
CCN(CCCCCCn1nc(-c2ccccc2O)ccc1=O)Cc1ccccc1 | 25.7 | 910 | 2.96 | 15.4 | – | – | –
CCN(CCCCCCn1nc(-c2cc(Br)ccc2O)ccc1=O)Cc1ccccc1OC | 34.2 | 880 | 1.53 | – | – | – | –
CCN(CCCCCCOc1ccc(-c2ccccc2O)nn1)Cc1cccc(F)c1 | 18.5 | 4260 | 0.54 | 26.4 | – | – | –
CCN(CC)CCCn1nc(-c2ccccc2O)ccc1=O | < 5 | – | 2.54 | 33.7 | 17.4 | – | –
CCN(CCCCCCn1nc(-c2cc(NC(C)=O)ccc2O)ccc1=O)Cc1ccccc1OC | 8.02 | 370 | 2.06 | 42.6 | – | – | 38.7
CCN(CCCCCCn1nc(-c2ccc(OC)cc2O)ccc1=O)Cc1ccccc1N(C)C | 19.2 | 1590 | 3.55 | 34.3 | – | – | –
CCN(CCCCCCn1nc(-c2cccc(N(C)C)c2O)ccc1=O)Cc1ccccc1N(C)C | 18.8 | 4780 | 2.03 | 57.9 | – | – | 53
CCN(CCCCCCn1nc(-c2cc(F)ccc2O)ccc1=O)Cc1cccc(F)c1 | 33 | 250 | 0.75 | 33.8 | – | – | –
O=c1ccc(-c2ccccc2O)nn1CCCN1CCOCC1 | < 5 | – | 2.82 | – | 22.7 | – | –
CCN(CCCCCCn1nc(-c2ccccc2O)ccc1=O)Cc1ccccc1OC | 24.5 | 740 | 2.76 | 36.1 | – | 372 | –
CCN(CCCn1nc(-c2ccccc2O)ccc1=O)Cc1ccccc1OC | < 5 | – | 2.9 | – | 15.6 | – | –
CCN(CCCCCCn1nc(-c2cc(N(C)C)ccc2O)ccc1=O)Cc1cccc(F)c1 | 15 | 350 | 2.34 | 97 | – | – | 80.7

SMILES | inhibition [1] [%] | IC50 (Acetylcholinesterase; read-out: IC50) [nM] | Activity [2] | inhibition [3] [%] | inhibition [4] [%] | IC50 (Acetylcholinesterase; read-out: pIC50 (converted)) [nM] | inhibition [5] [%]
CCN(CCCCCCn1nc(-c2ccccc2O)ccc1=O)Cc1ccccc1C | 13.6 | 2540 | 2.54 | – | – | – | –
O=c1ccc(-c2ccccc2O)nn1CCCCCCN1CCc2ccccc2C1 | 21.7 | 2580 | 2.58 | – | – | – | –
CN(CCCn1nc(-c2ccccc2O)ccc1=O)Cc1ccccc1 | < 5 | – | 1.71 | – | 36.7 | – | –
CCN(CCCCCCn1nc(-c2cc(Br)ccc2O)ccc1=O)Cc1cccc(F)c1 | 12.9 | 2570 | 0.98 | – | – | – | –
CCN(CCCCCCn1nc(-c2ccccc2O)ccc1=O)Cc1cccc(Cl)c1 | 17.6 | 2930 | 1.56 | – | – | – | –
CCN(CCCn1nc(-c2ccccc2O)ccc1=O)Cc1ccccc1 | < 5 | – | 3.29 | – | 18.5 | – | –
CCN(CCCCCCn1nc(-c2cc([N+](=O)[O-])ccc2O)ccc1=O)Cc1ccccc1N(C)C | 28.3 | 460 | 0.42 | – | – | – | –
O=c1ccc(-c2ccccc2O)nn1CCCN1CCCC1 | < 5 | – | 2.83 | – | 30.3 | – | –
CCN(CC)CCCCCCn1nc(-c2ccccc2O)ccc1=O | 13.4 | 2480 | 2.69 | 33.8 | – | – | –
O=c1ccc(-c2ccccc2O)nn1CCCCCCN1CCCC1 | 15.7 | 1600 | 2.98 | – | – | – | –
CCN(CCCCCCn1nc(-c2cc(OC)ccc2O)ccc1=O)Cc1ccccc1N(C)C | 13.4 | 330 | 1.81 | 56.4 | – | – | 50.5
O=c1ccc(-c2ccccc2O)n[nH]1 | < 5 | – | 2.15 | – | – | – | –
CCN(CCCCCCn1nc(-c2cc(Br)ccc2O)ccc1=O)Cc1ccccc1N(C)C | 32.2 | 250 | 1.48 | – | – | – | –
CCN(CCCCCCn1nc(-c2cc(Cl)ccc2O)ccc1=O)Cc1ccccc1OC | 24.3 | 9250 | 0.96 | – | – | – | –
CCN(CCCCCCn1nc(-c2cc([N+](=O)[O-])ccc2O)ccc1=O)Cc1cccc(F)c1 | 33.3 | 1000 | 0.29 | – | – | – | –
CCN(CCCn1nc(-c2ccccc2O)ccc1=O)Cc1cccc(F)c1 | < 5 | – | 3.09 | – | 18.7 | – | –
CCN(CCCCCCn1nc(-c2ccc(F)cc2O)ccc1=O)Cc1ccccc1N(C)C | 27.3 | 1180 | 1.09 | – | – | – | –
COc1ccccc1CN(C)CCCn1nc(-c2ccccc2O)ccc1=O | < 5 | – | 3.15 | – | 17.6 | – | –
O=c1ccc(-c2ccccc2O)nn1CCCN1CCCCC1 | < 5 | – | 2.32 | – | 27.1 | – | –
